Results from patent publication US11766443B2, “Cyclopentathiophene carboxamide derivatives as platelet activating factor receptor antagonists” (Boehringer Ingelheim International GmbH, priority 2021, dated 2023).
Converted amounts (≈) assume the structure as drawn.

Experiments:
human PAFR = biological target: T1, human PAFR (Homo sapiens, UniProt P25105); experiment: cellular HTRF IP1 endpoint assay: inhibition of PAFR activation by PAF C-16 ligand; format: cell-based; conditions: HEK293 cells overexpressing human PAFR; PAF ligand 11 nM
T1 construct: expressed in transfected cells; host or cells: HEK293
Description: The ability of compounds of formula (I.0) to inhibit the activation of the PAF receptor (PAFR) by the PAF C-16 ligand (PAF) is determined using the following cellular HTRF IP1 assay (IP1 Gq assay kit from Cisbio, Cat. no.: 62IP1APEJ) in assay buffer (1×HBSS, 20 mM Hepes, pH 7.4, 50 mM LiCl and containing 0.1% (w/v) BSA):
HEK293 cells overexpressing human PAFR (produced in-house) are seeded into a Poly-D-Lysine coated 384 well white cell culture microtiter assay plate with lid (15.000 cells per well). Subsequently, the plates are incubated over night at 37° C./5% CO2. On the next day, cells are being washed and subsequently, various concentrations of the test compounds (compounds in 100% DMSO; final concentration of DMSO in wells is 1%) are added to the assay plate via Echo 555 acoustic liquid handler. Plates are then incubated with lid for 90 minutes at 37° C./5% CO2. Thereafter, PAF ligand (Cayman Chemical Company, Item no.: 60900) is added at a final concentration of 11 nM. Plates are then incubated with lid for 60 minutes at 37° C./5% CO2. Then, 5 μl per well of Anti-IP1-Anti body-Cryptate solution and 5 μL per well of IP1-d2 solution are added to all wells of the plate and the plate is incubated for another 60 minutes light protected at room temperature. The emissions at 620 nm and 665 nm (Excitation wavelength: 320 nm) are measured using an Envision Reader (PerkinElmer).

[1] = aqueous solubility in buffer (from DMSO stock, 24 h shaking, LC-UV); conditions: pH 2.2, aqueous buffer, kinetic from dmso stock
Description: The aqueous solubility of the test compound is determined by comparing the amount dissolved in buffer to the amount in an ACN/water (1/1) solution. Starting from a 10 mM DMSO stock solution aliquots are diluted with ACN/water (1/1) or buffer, respectively. After 24 h of shaking, the solutions are filtrated and analyzed by LC-UV. The amount dissolved in buffer is compared to the amount in the ACN solution.
Solubility will usually be measured from 0.001 to 0.125 mg/mL at a DMSO concentration of 2.5%. If more than 90% of the compound is dissolved in buffer, the value is marked with “>”.

T1 sequence (P25105 whole entry): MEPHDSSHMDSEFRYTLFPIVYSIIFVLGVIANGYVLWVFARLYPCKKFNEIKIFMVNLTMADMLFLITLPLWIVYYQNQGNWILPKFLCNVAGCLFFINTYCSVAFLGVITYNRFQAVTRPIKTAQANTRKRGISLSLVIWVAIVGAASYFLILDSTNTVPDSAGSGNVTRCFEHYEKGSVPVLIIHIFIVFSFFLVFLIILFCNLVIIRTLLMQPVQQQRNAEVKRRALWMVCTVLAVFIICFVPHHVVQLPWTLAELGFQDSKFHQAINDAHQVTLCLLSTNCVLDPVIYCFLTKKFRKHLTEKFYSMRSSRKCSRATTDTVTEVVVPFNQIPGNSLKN

IC50 (human PAFR) | solubility at 24 h [1] | SMILES
240 nM | > 112 µg/mL | Cc1nnc2n1-c1sc3c(c1C(c1ccccc1F)NC2)CC(C(=O)N1CCOCC1)C3 (racemic) [Example 55, 9-(2-Fluorophenyl)-3-methyl-13-(morpholine-4-carbonyl)-16-thia-2,4,5,8-tetraazatetracyclo[8.6.0.0^2,6.0^11,15]hexadeca-1(10),3,5,11(15)-tetraene]
94 nM | > 118 µg/mL | COc1ccc(Cl)c(C2NCc3nnc(C)n3-c3sc4c(c32)CC(C(=O)N2CCOCC2)C4)c1 (stereo not drawn) [Example 62, 9-(2-Chloro-5-methoxyphenyl)-3-methyl-13-(morpholine-4-carbonyl)-16-thia-2,4,5,8-tetraazatetracyclo-[8.6.0.0^2,6.0^11,15]hexadeca-1(10),3,5,11(15)-tetraene]
2.9 nM | 100 µg/mL (≈ 179 µM) | Cc1nnc2n1-c1sc3c(c1[C@H](c1ccccc1Cl)NC2)C[C@H](C(=O)NCc1cc(C(F)(F)F)ccn1)C3 [Example 37]
210 nM | > 108 µg/mL | Cc1ccccc1[C@@H]1NCc2nnc(C)n2-c2sc3c(c21)C[C@H](C(=O)N1CCOCC1)C3 [Example 64, (9S,13S)-3-methyl-9-(2-methylphenyl)-13-(morpholine-4-carbonyl)-16-thia-2,4,5,8-tetraazatetracyclo[8.6.0.0^2,6.0^11,15]-hexadeca-1(10),3,5,11(15)-tetraene]
34 nM | > 139 µg/mL | Cc1nnc2n1-c1sc3c(c1[C@H](c1ccccc1Cl)NC2)C[C@H](C(=O)N1CCC1)C3 [Example 32]
0.5 nM | 98 µg/mL (≈ 198 µM) | CCC12CC(NC(=O)[C@@H]3Cc4sc5c(c4C3)[C@H](c3ccccc3Cl)NCc3nnc(C)n3-5)(C1)C2 [Example 50]
1.1 nM | > 132 µg/mL | Cc1nnc2n1-c1sc3c(c1[C@H](c1ccccc1Cl)NC2)C[C@H](C(=O)NCc1ccccc1)C3 [Example 31]
3.6 nM | 130 µg/mL (≈ 233 µM) | Cc1nnc2n1-c1sc3c(c1[C@H](c1ccccc1Cl)NC2)C[C@H](C(=O)NCc1ccc(C(F)(F)F)nc1)C3 [Example 7]
3 nM | 95 µg/mL (≈ 170 µM) | Cc1nnc2n1-c1sc3c(c1[C@H](c1ccccc1Cl)NC2)C[C@H](C(=O)NCc1ncccc1C(F)(F)F)C3 [Example 36]
110 nM | > 104 µg/mL | CCCc1nnc2n1-c1sc3c(c1[C@@H](c1ccccc1Cl)NC2)CC(C(=O)N1CCOCC1)C3 (stereo in doubt) [Example 80, 9-(2-Chlorophenyl)-13-(morpholine-4-carbonyl)-3-propyl-16-thia-2,4,5,8-tetraazatetracyclo[8.6.0.0^2,6.0^11,15]hexadeca-1(10),3,5,11(15)-tetraene]
15 nM | > 128 µg/mL | Cc1ncsc1CNC(=O)[C@@H]1Cc2sc3c(c2C1)[C@H](c1ccccc1Cl)NCc1nnc(C)n1-3 [Example 48]
2 nM | > 105 µg/mL | Cc1nnc2n1-c1sc3c(c1[C@H](c1ccccc1Cl)NC2)C[C@H](C(=O)N1CC(C)(C)C1)C3 [Example 24]
0.4 nM | 109 µg/mL (≈ 195 µM) | Cc1nnc2n1-c1sc3c(c1[C@H](c1ccccc1Cl)NC2)C[C@H](C(=O)NCc1ccc(C(F)(F)F)cc1)C3 [Example 14]
4.5 nM | > 128 µg/mL | Cc1nnc2n1-c1sc3c(c1[C@H](c1ccccc1Cl)NC2)C[C@H](C(=O)N[C@@H](C)CF)C3 [Example 20]
297 nM | 116 µg/mL (≈ 250 µM) | CCc1ccccc1C1NCc2nnc(C)n2-c2sc3c(c21)CC(C(=O)N1CCOCC1)C3 (racemic) [Example 53, 9-(2-Ethylphenyl)-3-methyl-13-(morpholine-4-carbonyl)-16-thia-2,4,5,8-tetraazatetracyclo[8.6.0.0^2,6.0^11,15]hexadeca-1(10),3,5,11(15)-tetraene]
2.6 nM | 104 µg/mL (≈ 186 µM) | Cc1nnc2n1-c1sc3c(c1[C@H](c1ccccc1Cl)NC2)C[C@H](C(=O)NCc1cncc(C(F)(F)F)c1)C3 [Example 43]
281 nM | 88 µg/mL (≈ 158 µM) | Cc1nnc2n1-c1sc3c(c1[C@@H](c1ccccc1Cl)NC2)C[C@H](C(=O)NCc1ccc(C(F)(F)F)cc1)C3 [Example 13]
5.3 nM | > 112 µg/mL | Cc1nnc2n1-c1sc3c(c1[C@H](c1ccccc1Cl)NC2)C[C@H](C(=O)N1CC2(CCCO2)C1)C3 [Example 22]
1.9 nM | 101 µg/mL (≈ 192 µM) | Cc1nnc2n1-c1sc3c(c1[C@H](c1ccccc1Cl)NC2)C[C@H](C(=O)NCc1ccc(Cl)cn1)C3 [Example 49]
3.8 nM | 106 µg/mL (≈ 190 µM) | Cc1nnc2n1-c1sc3c(c1[C@H](c1ccccc1Cl)NC2)C[C@H](C(=O)NCc1cccc(C(F)(F)F)n1)C3 [Example 35]
1.3 nM | > 114 µg/mL | Cc1nnc2n1-c1sc3c(c1[C@H](c1ccccc1Cl)NC2)C[C@H](C(=O)NC1CCC(F)(F)CC1)C3 [Example 23]
2.2 nM | > 116 µg/mL | Cc1nnc2n1-c1sc3c(c1[C@H](c1ccccc1Cl)NC2)C[C@H](C(=O)NC12CC(C1)C2)C3 [Example 51]
224 nM | 68 µg/mL (≈ 137 µM) | O=C(C1Cc2sc3c(c2C1)C(c1ccccc1Cl)NCc1nnc(C2CC2)n1-3)N1CCOCC1 (stereo not drawn) [Example 81, 9-(2-Chlorophenyl)-3-cyclopropyl-13-(morpholine-4-carbonyl)-16-thia-2,4,5,8-tetraazatetracyclo[8.6.0.0^2,6.0^11,15]hexadeca-1(10),3,5,11(15)-tetraene]
2.8 nM | > 139 µg/mL | Cc1nnc2n1-c1sc3c(c1[C@H](c1ccccc1Cl)NC2)C[C@H](C(=O)NC(C)(C)CO)C3 [Example 33]
11 nM | > 119 µg/mL | COc1ccc(CNC(=O)[C@@H]2Cc3sc4c(c3C2)[C@H](c2ccccc2Cl)NCc2nnc(C)n2-4)cn1 [Example 41]
35 nM | > 121 µg/mL | CCc1nnc2n1-c1sc3c(c1[C@H](c1ccccc1Cl)NC2)C[C@H](C(=O)N1CCOCC1)C3 [Example 69]

SMILES | IC50 (human PAFR) | solubility at 24 h [1]
Cc1nnc2n1-c1sc3c(c1[C@H](c1ccccc1Cl)NC2)C[C@H](C(=O)NCc1cscn1)C3 [Example 39] | 60 nM | > 110 µg/mL
Cc1nnc2n1-c1sc3c(c1[C@H](c1ccccc1Cl)NC2)C[C@H](C(=O)N1C[C@@H](C)O[C@H](C)C1)C3 [Example 5] | 8.2 nM | 95 µg/mL (≈ 191 µM)
Cc1nnc2n1-c1sc3c(c1[C@@H](c1ccccc1Cl)NC2)C[C@H](C(=O)NC1CCC1)C3 [Example 9] | 34 nM | > 105 µg/mL
Cc1nnc2n1-c1sc3c(c1C(c1ccccc1Cl)NC2)CC(C(=O)N1CCOCC1)C3 (racemic) [Example 1, 9-(2-Chlorophenyl)-3-methyl-13-(morpholine-4-carbonyl)-16-thia-2,4,5,8-tetraazatetracyclo[8.6.0.0^2,6.0^11,15]-hexadeca-1(10),3,5,11(15)-tetraene] | 102 nM | > 115 µg/mL
Cc1nnc2n1-c1sc3c(c1[C@H](c1ccccc1Cl)NC2)C[C@H](C(=O)NCc1ccc(OC(F)F)nc1)C3 [Example 12] | 1.9 nM | > 129 µg/mL
Cc1ncc(CNC(=O)[C@@H]2Cc3sc4c(c3C2)[C@H](c2ccccc2Cl)NCc2nnc(C)n2-4)s1 [Example 47] | 12 nM | > 115 µg/mL
Cc1noc(C)c1NC(=O)[C@@H]1Cc2sc3c(c2C1)[C@H](c1ccccc1Cl)NCc1nnc(C)n1-3 [Example 25] | 4.3 nM | > 136 µg/mL
CCCN(CCC)C(=O)[C@@H]1Cc2sc3c(c2C1)[C@@H](c1ccccc1Cl)NCc1nnc(C)n1-3 [Example 72, (9S,13S)-9-(2-Chlorophenyl)-3-methyl-N,N-dipropyl-16-thia-2,4,5,8-tetraazatetracyclo[8.6.0.0^2,6.0^11,15]hexadeca-1(10),3,5,11(15)-tetraene-13-carboxamide] | 8.1 nM | > 101 µg/mL
Cc1nnc2n1-c1sc3c(c1[C@@H](c1ccccc1Cl)NC2)C[C@H](C(=O)NCCOC(F)(F)F)C3 [Example 8] | 55 nM | > 121 µg/mL
Cc1nnc2n1-c1sc3c(c1[C@H](c1ccccc1Cl)NC2)C[C@H](C(=O)NCc1ccnc(C(F)(F)F)c1)C3 [Example 45] | 1.9 nM | > 140 µg/mL
Cc1nnc2n1-c1sc3c(c1[C@H](c1ccccc1Cl)NC2)C[C@H](C(=O)NCc1nccs1)C3 [Example 40] | 83 nM | > 111 µg/mL
Cc1nnc2n1-c1sc3c(c1[C@H](c1ccccc1Cl)NC2)C[C@H](C(=O)NCc1cncnc1)C3 [Example 42] | 138 nM | > 121 µg/mL
Cc1nnc2n1-c1sc3c(c1[C@@H](c1ccccc1Cl)NC2)C[C@H](C(=O)NCc1ccc(OC(F)F)nc1)C3 [Example 11] | 53 nM | 105 µg/mL (≈ 189 µM)
